From ChEMBL document CHEMBL1687828, “Extremely drug-resistant Citrobacter freundii isolate producing NDM-1 and other carbapenemases identified in a patient returning from India” (2011)

Columns and labels:
Citrobacter freundii [1] = assay: Antibacterial activity against drug-resistant Citrobacter freundii isolate producing metallo-beta-lactamase NDM-1 with carbapenemase activity isolated from urine culture of cerebral vascular malformation patient by Etest; type: functional, organism-based
Citrobacter freundii [2] = assay: Antibacterial activity against drug-resistant Citrobacter freundii isolate producing metallo-beta-lactamase NDM-1 with carbapenemase activity isolated from urine culture of cerebral vascular malformation patient; type: functional

Molecule	MIC (Citrobacter freundii [1]) [µg/mL]	MIC (Citrobacter freundii [2]) [µg/mL]
COLISTIN	0.5	–
C[C@@H](O)[C@H]1C(=O)N2C(C(=O)O)=C(SCCNC=N)C[C@H]12 [IMIPENEM ANHYDROUS]	–	> 32
C[C@@H](O)[C@H]1C(=O)N2C(C(=O)O)=C(S[C@@H]3CN[C@H](C(=O)N(C)C)C3)[C@H](C)[C@H]12 [MEROPENEM]	–	> 32
C[C@@H](O)[C@H]1C(=O)N2C(C(=O)O)=C(S[C@@H]3CN[C@H](C(=O)Nc4cccc(C(=O)O)c4)C3)[C@H](C)[C@H]12 [ERTAPENEM]	–	> 32
